How the values were obtained:
[1] = target: T1, full-length WT STING (Homo sapiens, UniProt Q86WV6, H232R); assay: 3H-cGAMP filtration binding assay (WT STING); settings: competition with tritiated cGAMP, WT STING membrane
T1 construct: AviTag (after gg linker) (C); HRV3C cleavage site (after gs linker) (C); HIS8 (C); made in house; host or cells: Trichoplusia ni (Hi-Five) insect cells infected with baculovirus (virus generated and amplified in Sf21 cells); used as a washed membrane preparation
Description: (§1) The ability of compounds to bind STING is quantified by their ability to compete with tritiated cGAMP ligand for human STING receptor membrane using a radioactive filter-binding assay. The binding assay employs STING receptor obtained from Trichoplusia ni cell membranes (T. ni; Expression Systems, cat #94-002F, www.expressionsystems.com) overexpressing full-length WT STING and tritiated cGAMP ligand.
The basic WT STING filtration assay protocol is as follows:
16 nM of [^3H] c-GAMP ligand was prepared by diluting into assay buffer, and 50 uL of this working stock was manually added to each well of the assay plate. After ligand addition, 2 uL of either titrated test compound, DMSO control (Sigma #276855), or cold cGAMP control was added to the appropriate wells using a BIOMEK FX. The serially titrated compound was prepared on a Hamilton STARPlus CORE in a 96-well plate (Greiner, #651201) using a 1:3 ten-point dose response format. Following compound addition, a 2.2 ug/ml working concentration of STING membrane (SEQ. ID. No. 3) was prepared by diluting concentrated membrane into assay buffer (1×PBS; Invitrogen # SH30028.02) and douncing 7× using a manual tissue homogenizer (Wheaton, #357546). 148 uL of this prepared membrane was then manually added to each well of a 96-well deep-well polypropylene plate (Fisher Scientific, #12-566-121). Compound, ligand, and membrane then incubated for 60 min at RT before the contents of each assay plate were filtered through a 96-well GF/B filter plate (PerkinElmer, #6005250) using a TOMTEC MACH III Cell Harvester equipped with 20 mM HEPES buffer (Fisher Scientific, # BP299500). The filter plates were then dried at 55° C. for 30 min using a pressurized VWR oven before 30 uL of ULTIMA GOLD F scintillate was added to each well. Tritium levels for each reaction well were then measured using a PerkinElmer TopCount plate reader.
(§2) After normalization to controls, the percent activity for each compound concentration was calculated by measuring the amount of remaining radioactivity. The plot of percent activity versus the log of compound concentration was fit with a 4-parameter dose response equation to calculate EC50 values.

[2] = system: secretion of interferon-beta from THP1 cells; assay: IFN-β secretion in THP1 cell culture (5 h); assay type: cell-based; settings: Homo sapiens, THP-1, 5 h, 30 uM cGAMP = 100%; for activation at 3 µM: compound at 3 uM, read-out: % Effect relative to 2′3′-cGAMP (@ 3 uM); for activation at 30 µM: compound at 30 μM, read-out: % Effect at 30 μM relative to 2′3′-cGAMP
Description: The ability of compounds to stimulate the secretion of interferon-beta from THP1 cells was measured using a human IFN-β AlphaLISA kit (Perkin Elmer, Cat. No. AL265F). The basic protocol is as follows:
A Labcyte Echo 550 acoustic dispenser was used to transfer 120 nL of compound dissolved in DMSO into the wells of an empty, sterile 384-well microplate, (Corning, Cat. No. 3712). THP1 cells (American Type Culture Collection, Cat. No. TIB202) previously frozen in Recovery Medium (Life Technologies, Cat. No. 12648-010) were thawed and immediately diluted 10-fold into 37° C. assay medium (RPMI 1640+L-Glutamine & phenol red, Life Technologies, Cat. No. 11875-085; 0.5% heat inactivated fetal bovine serum, Sigma Aldrich, Cat. No. F4135; 1 mM Sodium Pyruvate, Life Technologies, Cat. No. 11360-070; 1× non-essential amino acids; Life Technologies, Cat. No. 11140-050). The cell viability and count was ascertained using a Beckman Coulter V-Cell XR cell counter. The cells suspension was centrifuged at 200×g for 5 min at RT. Cells were resuspended to a density of 0.8×10^6/mL in 37° C. assay medium. Subsequent liquid transfers were performed using either a Matrix electronic multichannel pipette or an Agilent Bravo Automated Liquid Handling Platform.
The assay was started by dispensing 40 μL of the previously prepared cell suspension into the wells of the plate containing compounds. After 5 h incubation at 37° C., 5% CO2 in a humidified atmosphere, the plate of cells and compounds was centrifuged at 200×g for 5 min at RT. From each well, 5 μL of supernatant was transferred into corresponding wells of a white 384-well plate (Perkin Elmer, Cat. No. 6005620). To these supernatant-containing wells was added 10 μL of 5× Anti-Analyte Acceptor beads (50 μg/mL of AlphaLISA HiBlock Buffer) and incubated for 30 min at RT while shaking on an orbital plate shaker. To each well was added 10 μL of 5× Biotinylated Antibody Anti-analyte (5 nM in AlphaLISA HiBlock Buffer) and incubated on an orbital plate shaker for 60 min at RT or overnight at 4° C. To each well was added 25 μL of 2× SA-Donor beads (80 μg/mL in AlphaLISA HiBlock Buffer) and incubated for 30-45 min at RT in the dark while shaking on an orbital plate shaker. The plate was then read on a Perkin Elmer Envision (λex=680 nm, […]). The percent effect of the AlphaLISA signal at each compound concentration was calculated based on 30 uM cGAMP positive controls and 0.3% DMSO negative controls. The plot of percent effect versus the log of compound concentration was fit with a 4-parameter concentration response equation to calculate EC50 values. The test compounds were tested at concentrations 30000, 10000, 3333, 1111, 370.4, 123.4, 41.2, 13.7, 4.6, and 1.5 nM with 0.3% residual DMSO. The control compound, cGAMP was tested at concentrations 100000, 33333, 11111, 3704, 1235, 412, 137, 46, and 15 nM with 0.3% residual DMSO.
Compounds of the disclosure were evaluated for IFN-β secretion in THP1 cell culture as described above. The following table tabulates the biological data for these compounds as percent activation relative to 2′3′-cGAMP at the 30 µM concentration.

[3] = target: T2, full-length HAQ STING (Homo sapiens, UniProt Q86WV6, G230A/H232R/R293Q/R71H); assay: 3H-cGAMP filtration binding assay (HAQ STING); settings: competition with tritiated cGAMP, HAQ STING membrane
T2 construct: AviTag (after GG linker) (C); HRV3C cleavage site (after GS linker) (C); HIS8 (C); made in house; host or cells: Trichoplusia ni (Hi-Five) insect cells infected with baculovirus (virus generated and amplified in Sf21 cells); used as a washed membrane preparation
T2 sequence (Q86WV6 with tags, fused parts or gaps R71H/G230A/H232R/R293Q): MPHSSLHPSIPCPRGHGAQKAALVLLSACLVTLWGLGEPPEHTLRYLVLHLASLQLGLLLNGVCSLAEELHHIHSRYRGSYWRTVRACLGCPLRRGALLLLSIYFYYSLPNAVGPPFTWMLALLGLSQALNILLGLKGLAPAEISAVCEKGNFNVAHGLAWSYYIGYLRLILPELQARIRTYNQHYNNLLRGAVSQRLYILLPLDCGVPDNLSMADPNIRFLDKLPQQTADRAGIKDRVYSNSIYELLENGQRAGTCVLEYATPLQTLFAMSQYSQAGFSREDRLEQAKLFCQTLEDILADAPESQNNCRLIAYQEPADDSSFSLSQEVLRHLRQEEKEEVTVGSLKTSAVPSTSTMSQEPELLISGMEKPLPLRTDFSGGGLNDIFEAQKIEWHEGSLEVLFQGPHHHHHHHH
Source text: The ability of compounds to bind STING is quantified by the ability to compete with tritiated cGAMP ligand for human STING receptor membrane using a radioactive filter-binding assay. The binding assay employs STING receptor obtained from Hi-Five cell membranes overexpressing full-length HAQ STING prepared in-house and tritiated cGAMP ligand also purified in-house.
as §1, with “HAQ” for “WT”
The basic HAQ STING filtration assay protocol is as follows:
The compounds were serially titrated by the Hamilton STARPlus CORE in a 96-well plate (Greiner, #651201) using a 1:3 ten-point dose response format. After compound preparation, a 2.2 ug/ml working concentration of STING membrane (SEQ. ID. No. 1) was prepared by diluting concentrated membrane into assay buffer (1×PBS; Invitrogen # SH30028.02) and douncing 7× using a manual tissue homogenizer (Wheaton, #357546). 148 uL of prepared membrane was then manually added to each well of a 96-well deep-well polypropylene plate (Fisher Scientific, #12-566-121). Following membrane addition, 2 uL of either titrated test compound, DMSO control (Sigma #276855), or cold cGAMP control was added to the appropriate wells using a BIOMEK FX. Compound and membrane then preincubated for 60 min at RT to allow compound binding to equilibrate. Following equilibration, 8 nM of [^3H]c-GAMP ligand was prepared by diluting into assay buffer, and 50 uL of this working stock was then manually added to each well of the assay plate. Plates were then incubated at RT for 60 min, and the contents of each assay plate were then filtered through a 96-well GF/B filter plate (PerkinElmer, #6005250) using a TOMTEC MACH III Cell Harvester equipped with 20 mM HEPES buffer (Fisher Scientific, # BP299500). The filter plates were then dried at 55° C. for 30 min using a pressurized oven before 30 uL of ULTIMA GOLD F scintillate was added to each well. Tritium levels for each reaction well were then measured using a PerkinElmer TopCount plate reader.
as §2

T1 sequence (Q86WV6 with tags, fused parts or gaps H232R): as the sequence (Q86WV6 with tags, fused parts or gaps R71H/G230A/H232R/R293Q) above, with H71R, A230G, Q293R counted along it

Row | SMILES | EC50 [1] [nM] | activation at 3 µM [2] [%] | EC50 [3] [nM] | activation at 30 µM [2] [%]
1 | COc1cc2sc(C(=O)C[C@H](C)C(=O)O)cc2c(Cl)c1OCCOc1c(OC)cc2sc(C(=O)C[C@H](C)C(=O)O)cc2c1Cl [Example 153, (2S,2′S)-4,4′-((ethane-1,2-diylbis(oxy))bis(4-chloro-6-methoxybenzo[b]thiophene-5,2-diyl))bis(2-methyl-4-oxobutanoic acid)] | 10 | 137 | 3 | –
2 | COc1cc2sc(C(=O)C[C@H](C)C(=O)O)cc2cc1OCCCOc1c(OC)cc2sc(C(=O)C[C@H](C)C(=O)O)cc2c1Cl [Example 155, (S)-4-(5-(3-((2-((S)-3-carboxybutanoyl)-4-chloro-6-methoxybenzo[b]thiophen-5-yl)oxy)propoxy)-6-methoxybenzo[b]thiophen-2-yl)-2-methyl-4-oxobutanoic acid] | 5 | 129 | 3 | –
3 | COc1cc2sc(C(=O)C[C@H](C)C(=O)O)cc2cc1OCCCOc1cc2sc(C(=O)C[C@H](C)C(=O)O)cc2cc1OC [Example 51] | 8 | – | 3 | 43
4 | COc1cc2sc(C(=O)C[C@H](C)C(=O)O)cc2cc1OCCCCCOc1c(OC)cc2sc(C(=O)C[C@H](C)C(=O)O)cc2c1F [Example 103, (S)-4-(5-((5-((2-((S)-3-carboxybutanoyl)-4-fluoro-6-methoxybenzo[b]thiophen-5-yl)oxy)pentyl)oxy)-6-methoxybenzo[b]thiophen-2-yl)-2-methyl-4-oxobutanoic acid] | 371 | – | 22 | 79
5 | COc1cc2sc(C(=O)C[C@H](C)C(=O)O)cc2c(F)c1CCCOc1c(OC)cc2sc(C(=O)[C@@H]3CCC3C(=O)O)cc2c1F (stereo partly drawn) [Example 107, trans-2-(5-(3-(2-((S)-3-carboxybutanoyl)-4-fluoro-6-methoxybenzo[b]thiophen-5-yl)propoxy)-4-fluoro-6-methoxybenzo[b]thiophene-2-carbonyl)cyclobutane carboxylic acid] | 2 | – | 1 | 108
6 | COc1cc2sc(C(=O)C[C@H](C)C(=O)O)cc2cc1CCCOc1cc2cc(C(=O)C[C@H](C)C(=O)O)sc2cc1OC [Example 41, (2S)-4-{5-[3-({2-[(3S)-3-carboxybutanoyl]-6-methoxy-1-benzothiophen-5-yl}oxy)propyl]-6-methoxy-1-benzothiophen-2-yl}-2-methyl-4-oxobutanoic acid] | 50 | – | 16 | 117
7 | COc1cc2sc(C(=O)C[C@H](C)C(=O)O)cc2c(F)c1OCCCOc1cc2sc(C(=O)[C@@H]3CC[C@H]3C(=O)O)cc2c(F)c1OC (single isomer, unassigned) [Example 97] | 69 | – | 20 | –
8 | COc1cc2sc(C(=O)C[C@H](C)C(=O)O)cc2c(F)c1OCCCOc1c(OC)cc2sc(C(=O)[C@@H]3CC[C@H]3C(=O)O)cc2c1F [Example 99, trans-2-(5-(3-((2-((S)-3-carboxybutanoyl)-4-fluoro-6-methoxybenzo[b]thiophen-5-yl)oxy)propoxy)-4-fluoro-6-methoxybenzo[b]thiophene-2-carbonyl)cyclobutane carboxylic acid] | – | – | 1 | –
9 | COc1cc2sc(C(=O)C[C@H](C)C(=O)O)cc2c(F)c1OCCCOc1c(OC)cc2sc(C(=O)[C@@H]3CC[C@H]3C(=O)O)cc2c1F [Example 98, trans-2-(5-(3-((2-((S)-3-carboxybutanoyl)-4-fluoro-6-methoxybenzo[b]thiophen-5-yl)oxy)propoxy)-4-fluoro-6-methoxybenzo[b]thiophene-2-carbonyl)cyclobutane carboxylic acid] | – | – | 1 | 92
